Patent publication US9963433B2, “Anticancer drugs including the chemical structures of an androgen receptor ligand and a histone deacetylase inhibitor” (Wayne State University, priority 2016, dated 2018)

What was measured:
22Rv1 cells = assay: MTT cell viability assay, 22Rv1 cells; format: cell-based; conditions: Day 3, 0.1 μM-10 μM, FIG. 6E; for EC50: Homo sapiens, 22Rv1, 72 h, read-out: EC50, inhibition of growth of 22Rv1 cells
Protocol: (6A) C4-2 cells were seeded in 96-well plates and 24 h later, they were treated with the indicated compounds (0.1 μM-10 μM) or with vehicle (DMSO). Cell viability was measured by the MTT assay on Days 0 and 3 of treatment. EC50 values were calculated from nonlinear regression plots using GraphPad Prism5 software. […] Cell viability was measured by the MTT assay on Days 0 and 3 of treatment. […] Cell viability was measured by the MTT assay on Days 0 and 3 of treatment. […] (6D) 22Rv1 cells were infected with AR shRNA lentivirus, or control shRNA. 72 h after infection, cells were plated and viable cells were measured by the MTT assay on the indicated days (6D, bottom). Cells were also harvested for western blot analysis and probed with antibody to AR, which was also reactive with the AR splice variant AR-V7 (6D, top). (6E) 22Rv1 cells were seeded in 96-well plates and 24 h later, they were treated with the indicated compounds (0.1 μM-10 μM) or with vehicle (DMSO). Cell viability was measured by the MTT assay on Days 0 and 3 of treatment. EC50 values were calculated from nonlinear regression plots using GraphPad Prism5 software.
Cell Proliferation Assay. Cells were trypsinized and 6000 cells/well were seeded in 96-well plates coated with poly-D-lysine. The cells were seeded in phenol red-free medium supplemented with 10% FBS, 100 units/ml penicillin, 100 μg/ml streptomycin, 2 mM L-glutamine mixture and sodium pyruvate (1 mM) for C4-2 cells and phenol red-free medium supplemented with 10% FBS, 100 units/ml penicillin, 100 μg/ml streptomycin and 2 mM L-glutamine mixture for 22Rv1 cells. The cells were grown at 37° C. in 5% CO2. Twenty four hours after seeding in the 96-well plates, the cells were treated with indicated compound or DMSO (vehicle). The culture medium was not changed during the time course of the assay. On Day zero and on Day 3, cell viability was determined using the MTT assay. MTT (10 μL, 5 mg/mL) was added to each well and incubated for 2 h at 37° C. The formazan crystal sediments were dissolved in 100 μL of DMSO, and the absorbance at 570 nm was measured using the BioTek Synergy 2 Microplate Reader (BioTek, Winooski, Vt.). […] IC50 values were calculated from nonlinear […] plots using GraphPad Prism5 software.

p21 mRNA in C4-2 cells = assay: p21 mRNA induction in C4-2 cells; conditions: 48 h, FIG. 5B
[1] = test system: TMPRSS2 mRNA (AR target gene) in C4-2 cells; assay: Inhibition of R1881 activation of TMPRSS2 mRNA in C4-2 cells; format: cell-based; conditions: hormone depleted 96 h, R1881 1 nM, compound 1-10 μM, 48 h, FIG. 3B
Protocol: Cell Culture and Reagents. LNCaP and 22Rv1 cell lines were from American Type Culture Collection (Manassas, Va.). C4-2 cells were kindly provided by Dr. Edwin Sanchez (University of Toledo). […] R1881 was kindly provided by Dr. Stephan Patrick (Karmanos Cancer Institute). All experiments were conducted using phenol-red free growth media.
RNA isolation, Reverse Transcription, and Real Time PCR. Total RNA was isolated from cells using the RNeasy Mini Kit (Qiagen). Reverse transcription PCR was then performed using 500 ng of total RNA with random primers and using the high-capacity complementary DNA Archive kit (Applied Biosystems). The complementary DNA from this reaction was measured using quantitative real time PCR using the StepONE Plus Real Time PCR system (Life Technologies Corporation, Carlsbad, Calif.). All reactions were performed in triplicate and normalized to glyceraldehyde-3-phosphate-dehydrogenase values in the same samples.

[2] = test system: 55 KDa polypeptide (putative Hsp90 fragment); assay: Western blot of acetylated lysine in C4-2 cells; conditions: 24 h, acetylated lysine antibody, FIG. 4C
Protocol: Cells were then harvested for western blot analysis using antibody to AR (4A), HSP90 (4B), Acetyl-Lysine (4C) or GAPDH (loading control). ImageJ software was used to determine the intensities of the bands relative to the vehicle control for each protein. The values were then divided by the values for GAPDH within the same samples.
Western Blot Analysis. Cells were washed once with phosphate buffered saline (PBS) and then lysed with RIPA buffer (150 mM NaCl, 1% Nonidet P-40, 0.5% sodium deoxycholate, 0.1% SDS, 50 mM Tris of pH 8.0) containing a protease inhibitor cocktail (Pierce, Thermo Fisher Scientific). The cell lysates were then incubated on ice for 40 minutes. Total protein concentrations were estimated using the Bradford Assay (Bio-Rad). Protein samples (10-40 ug) were heated at 95° C. for 5 minutes and resolved by electrophoresis on 8% polyacrylamide-SDS gels and electrophoretically transferred to PVDF membranes (Millipore, Billerica, Mass.). The membranes were then probed overnight at 4° C. with the appropriate primary antibody followed by the appropriate horseradish peroxidase-conjugated secondary antibody.

[3] = test system: HDACs from Hela cell nuclear extract; format: biochemical; conditions: for IC50: cell-free, FIG. 2A, read-out: IC50, inhibition of HDACs enriched in the Hela nuclear extract
Protocol: FIGS. 2A-2F show measurement of intrinsic and in situ HDACi activities. […] IC50 values were calculated from nonlinear regression plots using GraphPad Prism5 software. […] Recombinant HDAC6 was incubated with each drug at the indicated concentrations. IC50 values were calculated from nonlinear regression plots using GraphPad Prism5 software.
HDAC activity assay. In vitro HDAC inhibition was measured by using the HDAC fluorimetric assay/drug discovery Kit (Enzo Life Sciences, BML-AK500) and the HDAC6 fluorometric drug discovery kit (Enzo Life Sciences, BML-AK516) following the manufacturer's protocols and instructions. IC50 values were calculated from nonlinear […] plots using GraphPad Prism5 software.
HDAC1 and HDAC2 are enriched in nuclear extracts whereas HDAC6 is a cytosolic enzyme that is the principal modulator of the acetylation status of Hsp90. […] Again, TSA served as the positive control in FIG. 2D.

For `CC1(C)C(=O)N(c2ccc(C#N)c(C(F)(F)F)c2)C(=S)N1c1ccc(C(=O)NCCCCCCC(=O)NO)c(F)c1` [Compound 2-75, 4-(3-(4-cyano-3-(trifluoromethyl)phenyl)-5,5-dimethyl-4-oxo-2-thioxoimidazolidin-1-yl)-2-fluoro-N-(7-(hydroxyamino)-7-oxoheptyl)benzamide], the EC50 (22Rv1 cells) was 4.68 µM, the “p21 mRNA expression” value (p21 mRNA in C4-2 cells) was “induced p21 to a greater extent than SAHA” and the “inhibition of activation of TMPRSS2 by R1881” value (shortened to “inhibition … by R1881”) [1] was “better inhibitors of gene activation by androgen compared with either Enz or SAHA”. The “hyper-acetylation of a 55 KDa polypeptide” value (“hyper-acetylation” for short) [2] was “hyper-acetylation of a 55 KDa polypeptide” and the IC50 [3] was 1.08 µM.
In the case of `CC1(C)C(=O)N(c2ccc(C#N)c(C(F)(F)F)c2)C(=S)N1c1ccc(/C=C/C(=O)NO)c(F)c1` [Compound 1005, (E)-3-(4-(3-(4-cyano-3-(trifluoromethyl)phenyl)-5,5-dimethyl-4-oxo-2-thioxoimidazolidin-1-yl)-2-fluorophenyl)-N-hydroxyacrylamide], the EC50 (22Rv1 cells) is reported as 4.17 µM, the “p21 mRNA expression” value (p21 mRNA in C4-2 cells) is reported as “induced p21 to a greater extent than SAHA” and the “inhibition … by R1881” value [1] is reported as “better inhibitors of gene activation by androgen compared with either Enz or SAHA”. For the same molecule, the “hyper-acetylation” value [2] was “hyper-acetylation of a 55 KDa polypeptide” and the IC50 [3] was 2.41 µM.
`CNC(=O)c1ccc(N2C(=S)N(c3ccc(C#N)c(C(F)(F)F)c3)C(=O)C2(C)C)cc1F` [Enz, Enzalutamide, reference compound] was tested, and the “effect on growth of 22Rv1 cells” value (22Rv1 cells) was “not”, the “p21 mRNA expression” value (p21 mRNA in C4-2 cells) was “had no effect” and the “inhibition … by R1881” value [1] was “progressive inhibition at higher doses”. For the same molecule, the “hyper-acetylation” value [2] was “not” and the “inhibition of nuclear HDAC activity” value ([3]; HeLa cell nuclear extract, tested at 10 μM and 25 μM, FIG. 2B) was “lacked any HDACi activity”.
